Assay results from patent US6579893B1, “Use of troglitazone and related compounds for the treatment of cancer” (Board of Regents, The University of Texas System, priority 1997, dated 2003).

Columns and labels:
MCF-7 cells = test: Cell viability of MCF-7 cells (MTT to formazan); conditions: MCF-7 (non-PPARγ expressing), 4 days, MTT (FIG. 13)
Method: FIG. 13. […] MCF-7 cells were treated with increasing concentrations of Troglitazone for 4 days and cell viability was assessed by the conversion of MTT to formazan as previously described. Data are the mean ±SEM from 2 studies done in triplicate.
A non-PPARγ expressing human breast cancer cell line, MCF-7 was tested.

[1] = test system: polycystic ovary syndrome; conditions: women with PCO, 400 mg every day, cited from earlier work
HGL5 cells [2] = test system: HGL5 cells
Description: Progesterone was corrected for protein concentration. The data represent the mean ±SEM from 2 studies done in triplicate.

P450scc = test: Northern blot of P450scc mRNA in porcine granulosa cells; format: cell-based; conditions: 5 μg ml, 24 h (FIG. 5)
Description: FIG. 5. Scanned image of Northern blot Troglitazone effects on mRNA concentrations of P450scc.
Suppression of transcription of this enzyme would result in decreased progesterone production by granulosa cells.

porcine granulosa cells [3] = test: DNA content and total protein of treated porcine granulosa cells; format: cell-based
HGL5 cells [4] = test: Cell viability of HGL5 cells (MTT to formazan); conditions: HGL5, 4 days, MTT (FIG. 9)
Method: Cell viability was assessed by the conversion of MTT to formazan as previously described. Data are the mean ±SEM from 2 studies done in triplicate.
A similar assay was used as described above porcine granulosa cells, using MTT instead of MTS for conversion to formazan.

NWTb3 cells = test: Cell viability of NWTb3 cells (MTT to formazan); conditions: NWTb3, 4 days, MTT (FIG. 11)
Method: FIG. 11. […] Cells were grown in 24 well-plates with high-glucose MEM 10% FCS. Cell viability was assessed by the conversion of MTT to formazan as previously described. Data are the mean ±SEM from 2 studies done in triplicate.

porcine granulosa cells [5] = test: Progesterone production by cultured porcine granulosa cells; format: cell-based; conditions: for suppression of progesterone production, dose-response: serum-free medium, varying concentrations, 24 h (FIG. 1)
Description: FlG. 1. Dose-response of progesterone production suppression in porcine granulosa cells treated with Troglitazone and related thiazolidinedione compounds. […] . […] Progesterone concentrations were corrected for DNA content in treated cells and are presented as a percentage of basal corrected progesterone production.
FIG. 2. Time course of Troglitazone suppression of progesterone production by porcine granulosa cells. […] .
FIG. 4. Effects of 25-OH cholesterol on Troglitazone suppression of porcine granulosa cell progesterone production. […] .
Initial studies investigated the dose-response of Troglitazone and related compounds on progesterone production in cultures of porcine granulosa cells. Porcine granulosa cells were isolated from 1- to 5-mm follicles of ovaries from immature swine (60-70 kg) obtained from a local slaughterhouse (Urban et al. 1994). The cells were plated in Eagle's minimum essential medium and 3% fetal calf serum (FCS) at a concentration of 20-30 million cells 60-mm dish for 12-16 h to facilitate granulosa cell attachment to the plates. Monolayer cultures were maintained at 37° C. in 5% CO2 throughout the study. After granulosa cell attachment, medium containing the FCS was discarded and serum-free medium with varying concentrations of Troglitazone, pioglitazone and BRL 49653 was added for 24 h. One ml of medium was collected for measurement of progesterone by an assay previously described that uses the chromatographic separation of steroids to enhance specificity (Urban et al. 1994). […] . The time course for the suppression of progesterone was done in the same porcine granulosa cell culture system. […] . The suppression of progesterone production in porcine granulosa cells by Troglitazone could be due to effects of the drug on the supply of cholesterol to the mitochondria. Before investigating proteins in the pathway of cholesterol transport to the mitochondria, it was first tested whether Troglitazone would inhibit progesterone production when cells were co-treated with 25-OH cholesterol. This compound diffuses directly to the P-450 cholesterol side-chain cleavage enzyme (P-450scc) in the mitochondria and acts as a substrate for progesterone production (Veldhuis and Furlanetto, 1985). […] .

porcine granulosa cells [6] = test: Cell viability of porcine granulosa cells (MTS to formazan); format: cell-based; conditions: even at the highest doses, 100 μg ml (FIG. 3)
Method: FIG. 3. Cell viability porcine granulosa cells during treatment with Troglitazone. Porcine granulosa cells were treated with various concentrations of Troglitazone and cell viability determined using a MTS dye oxidation method. This method is based on the ability of dehydrogenase enzymes found in metabolically active cells to oxidize MTS to formazan. This compound is soluble in tissue culture medium.
Therefore, cell viability was tested in these cells using a colorimetric assay that is dependent on the oxidation of MTS to formazan (absorbance measured at 490 nm ) by dehydrogenase enzymes found in metabolically active cells (Promega, Madison WI). This assay was verified in porcine granulosa cells by showing a linear increase in absorption with increasing cell density.

PPARγ [7] = conditions: cited from earlier work
PPARα = molecular target: T1, PPARα (Homo sapiens, UniProt Q07869); conditions: cited from earlier work
T1 sequence (Q07869 1-468): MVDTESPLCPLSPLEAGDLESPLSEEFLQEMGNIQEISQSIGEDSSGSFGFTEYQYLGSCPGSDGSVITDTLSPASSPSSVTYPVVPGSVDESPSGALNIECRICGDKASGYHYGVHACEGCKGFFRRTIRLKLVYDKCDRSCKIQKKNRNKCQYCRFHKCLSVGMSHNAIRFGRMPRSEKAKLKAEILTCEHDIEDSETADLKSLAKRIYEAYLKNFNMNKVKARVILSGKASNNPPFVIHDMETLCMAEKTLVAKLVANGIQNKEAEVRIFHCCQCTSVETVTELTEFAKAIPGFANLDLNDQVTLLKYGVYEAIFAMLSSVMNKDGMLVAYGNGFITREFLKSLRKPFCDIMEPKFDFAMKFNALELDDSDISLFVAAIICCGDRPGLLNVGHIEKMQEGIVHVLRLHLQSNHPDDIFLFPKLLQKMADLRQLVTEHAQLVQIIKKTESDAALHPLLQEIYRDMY

PPARγ [8] = test: EMSA of porcine granulosa cell nuclear extract with consensus PPRE (DR-1) oligonucleotide; format: cell-based; conditions: 15 μg nuclear extract protein, EMSA (FIG. 6)
Description: The nuclear extract was mixed with radioactively-labeled consensus PPRE as described in FIG. 6.

For `Cc1c(C)c2c(c(C)c1O)CCC(C)(COc1ccc(CC3SC(=O)NC3=O)cc1)O2` (single isomer, unassigned; (+)) [Troglitazone, (+)-5[[4-[(3,4-dihydro-6-hydroxy-2,5,7,8-tetramethyl-2H-1-benzopyran-2-yl)methoxy]phenyl]methyl]-2,4thiazolidinedione], the cell viability (MCF-7 cells) is given as “decreased only with high concentrations”, the “women with ovulatory menses” value ([1]; 25 women studied) is given as 2 of the 25 and the insulin resistance [1] is given as “reduced”. The “progesterone production at single concentration” value (HGL5 cells [2]; 30 μg ml) was “inhibited progesterone production”, the “biphasic response at lower concentrations” value (HGL5 cells [2]; HGL5, 48 h (FIG. 8)) was “lower concentrations actually increasing progesterone production” and the “concentrations at which progesterone production was suppressed” value (HGL5 cells [2]; HGL5, 48 h (FIG. 8)) was “greater than 10 μg”. The “mRNA concentrations of P450scc” value (P450scc) was “did not suppress mRNA concentrations of P450scc”, the “total protein concentrations versus control” value (porcine granulosa cells [3]; Troglitazone treatment groups vs control) was “lower” and the “DNA content versus control” value (porcine granulosa cells [3]; Troglitazone-treated vs control cells) was “not a significant decrease in DNA content”. The “concentrations causing a loss of cell viability” value (HGL5 cells [4]) was no less than 0.5 µg·mL, the “concentrations causing a loss of cell viability” value (NWTb3 cells) was no less than 1.0 µg/mL and the “suppression of progesterone at single concentration” value (porcine granulosa cells [5]; 5 μg ml, 24 h (FIG. 7B)) was “suppression of progesterone in these cells occurred”. The “time at which progesterone production was suppressed” value (porcine granulosa cells [5]; 1 or 10 μg ml, up to 24 h (FIG. 2)) was no less than 4 h, the “effect of concentration on time of onset of suppression” value (porcine granulosa cells [5]; 1 vs 10 μg ml (FIG. 2)) was “did not affect the time of onset of suppression” and the “potency at suppressing progesterone production relative to the other thiazolidinediones” value (porcine granulosa cells [5]; 24 h dose-response (FIG. 1)) was “more potent at suppressing progesterone production than 2 other drugs”. The “progesterone production in the presence of 25-OH cholesterol” value (porcine granulosa cells [5]; co-treatment with 25-OH cholesterol 30 μg ml, Troglitazone 1 and 10 μg ml, 24 h (FIG. 4)) was “suppressed progesterone production”, the “suppression of progesterone production, dose-response” value (shortened to “suppression … dose-response”) (porcine granulosa cells [5]) was “suppressed progesterone production by porcine granulosa cells in a dose-dependent fashion” and the cell viability (porcine granulosa cells [6]) was “not a decrease in cell viability”.
In the case of `CCCCC/C=C/C=C1/C(=O)C=C[C@@H]1C/C=C\CCCC(=O)O` [15d-PGJ2, 15-deoxy-delta^12, 14-prostaglandin J2], the PPARγ-dependent adipogenesis (PPARγ [7]) is given as “activates PPARγ-dependent adipogenesis” and the PPARα activation (PPARα) is given as “activated PPARα only at high concentrations”.
With `CN(CCOc1ccc(CC2SC(=O)NC2=O)cc1)c1ccccn1` (centres unmarked) [BRL 49653, 5-[4-[2-(N-methyl-N-(2-pyridyl)amino]ethoxy]benzyl]thiazolidine-2,4-dione] the “binding to the PPRE in granulosa cell nuclear extracts” value (PPARγ [8]) was “increased binding to the PPRE” and the “suppression … dose-response” value (porcine granulosa cells [5]) was “suppressed progesterone production by porcine granulosa cells in a dose-dependent fashion”.
With `CCc1ccc(CCOc2ccc(CC3SC(=O)NC3=O)cc2)nc1` (centres unmarked) [pioglitazone, 5-[4-[2-(5-ethylpyridin-2-yl)ethoxyl]benzyl]thiazolidine-2,4-dione] the “suppression … dose-response” value (porcine granulosa cells [5]) was “suppressed progesterone production by porcine granulosa cells in a dose-dependent fashion”.
